Laboratory results reported in patent publication US20110144140A1, “PYRIDINYL-PYRIMIDINE DERIVATIVES USEFUL AS POTASSIUM CHANNEL MODULATING AGENTS” (priority 2006, published 2011).
Counter-ions that a name gives are not always drawn.

Experiments:
hSK3 channels = target: T1, hSK3 channels (Homo sapiens, UniProt Q9UGI6); assay: whole-cell patch-clamp recording of ionic current through SK channels, subtype 3, in HEK293 cells; type: cell-based; conditions: HEK293 cells expressing hSK3, baseline current at −75 mV, free Ca2+ 0.3-0.4 μM
T1 construct: expressed in transfected cells; host or cells: HEK293
Description: The ionic current through small-conductance Ca^2+-activated K^+ channels (SK channels, subtype 3) is recorded using the whole-cell configuration of the patch-clamp technique.
HEK293 tissue culture cells expressing hSK3 channels were grown in DMEM (Dulbecco's Modified Eagle Medium) supplemented with 10% FCS (foetal calf serum) at 37° C. in 5% CO2. At 60-80% confluency, cells were harvested by trypsin treatment and seeded on cover slips.
Experiments are carried out on one of several patch-clamp set-ups. Cells plated on coverslips are placed in a 15 μl perfusion chamber (flowrate ˜1 ml/min) mounted on an IMT-2 microscope. The microscopes are placed on vibration-free tables in grounded Faraday cages. All experiments are performed at room temperature (20-22° C.). […] Data are stored directly on the hard-disk and analysed by IGOR software (Wavemetrics, Lake Oswega, Oreg., USA).
The whole-cell configuration of the patch-clamp technique is applied. […] Cell capacitance is electronically compensated and the resistance between the pipette and the cell interior (the series resistance, Rs) is measured and compensated for. […]
The intracellular (pipette) solution contained: 154 mM KCl, 10 mM HEPES, 10 mM EGTA. Concentrations of CaCl2 and MgCl2 needed to obtain the desired free concentrations of Ca^2+ (0.3-0.4 μM, Mg^2+ always 1 mM) were calculated by EqCal software (Cambridge, UK) and added. […]

T1 sequence (Q9UGI6 whole entry): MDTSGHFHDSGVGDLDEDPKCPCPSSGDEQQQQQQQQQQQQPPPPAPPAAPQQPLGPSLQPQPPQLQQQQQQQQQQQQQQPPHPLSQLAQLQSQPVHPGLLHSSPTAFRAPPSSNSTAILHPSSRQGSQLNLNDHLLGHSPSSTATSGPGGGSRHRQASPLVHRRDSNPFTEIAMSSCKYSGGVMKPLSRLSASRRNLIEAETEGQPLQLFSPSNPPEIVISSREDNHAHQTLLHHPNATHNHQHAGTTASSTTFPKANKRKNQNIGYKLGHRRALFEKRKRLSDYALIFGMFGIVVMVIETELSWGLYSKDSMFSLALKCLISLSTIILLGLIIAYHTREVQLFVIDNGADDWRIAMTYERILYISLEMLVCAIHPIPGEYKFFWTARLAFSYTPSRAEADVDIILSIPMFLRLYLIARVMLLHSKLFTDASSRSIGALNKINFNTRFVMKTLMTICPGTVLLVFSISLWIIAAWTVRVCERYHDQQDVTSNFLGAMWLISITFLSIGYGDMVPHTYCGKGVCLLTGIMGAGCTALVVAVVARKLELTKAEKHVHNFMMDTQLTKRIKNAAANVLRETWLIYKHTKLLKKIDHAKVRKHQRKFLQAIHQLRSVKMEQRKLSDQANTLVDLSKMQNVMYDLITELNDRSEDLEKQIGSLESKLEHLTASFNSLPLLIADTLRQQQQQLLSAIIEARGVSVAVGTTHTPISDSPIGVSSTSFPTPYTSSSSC

SMILES	melting point [°C]	SC100 (Stimulating Concentration required for increasing the baseline current by 100%) (hSK3 channels) [µM]
Cc1cccc(-c2nc(C)cc(NC3CCCCC3)n2)n1	59.6 to 65	–
Cc1cc(Nc2ccc(Cl)cc2)nc(-c2cccc(Cl)n2)n1 (as salt: hydrochloride) [Compound 4A, (4-Chloro-phenyl)-[6-methyl-2-(6-chloro-pyridin-2-yl)-pyrimidin-4-yl]-amine]	239	–
Cc1cc(Nc2ccc(Cl)cc2)nc(-c2cccc(Cl)n2)n1 [Compound 4A, (4-Chloro-phenyl)-[6-methyl-2-(6-chloro-pyridin-2-yl)-pyrimidin-4-yl]-amine]	–	0.3
